# Read-outs that look alike come from different tables or passages of the source.
# Assays:
# [1] = test system: ATQ-R5 (cytb F267V, parent 3D7); test: Cross-resistance EC50 assay, ATQ-R5; assay type: cell-based, Plasmodium falciparum; details: Plasmodium falciparum, 3D7; SYBR green 72 hour assay; asynchronized parasites; 96-well or 1536-well format; ATQ-R5
# Source text: (§1) To evaluate potential overlapping activity against known antimalarial drug targets, we performed dose-response studies with each compound against our assembled set of drug-resistant lines and their corresponding parents, in an asexual blood stage proliferation assay (Table 1). Comparisons were made to the drug-sensitive strain 3D7 when a parent was unavailable (TM90C2A, W2 and Dd2). As laboratories conducted EC50 assays with different strains and protocols, all comparisons were made between assays from the same laboratory and under the same assay conditions. Compounds displaying >5-fold EC50 shifts relative to the parent or sensitive strain were flagged as having potentially non-novel targets. Average fold shifts per strain ranged from 0.82 to 2.34, with a median of 1.23 indicating there was not common resistance to any one resistant clone. No resistance patterns were observed when classifying the compounds based on chemical structure, but this was not surprising given the diversity of compounds chosen. On the other hand, given that these confirmed compounds were derived from larger unconfirmed hit lists to which some filtration criteria may have been applied (for example, elimination of obvious dihydrofolate reductase inhibitors[32]), some[10][11][12][13] pre-existing bias may exist in the set. […]
# (§2) Alternatively, a SYBR Green-based proliferation approach was used for the 72-h assay, as previously described. Briefly, a culture of either synchronized or asynchronous parasitized RBCs (0.3% parasitemia and 4% haematocrit) in screening medium (identical to supplemented medium above except no serum was added) was exposed to serial drug dilutions. Plates were incubated at 37 °C and gassed with 93% N2, 4% CO2 and 3% O2 for 72 h. Following incubation, 10 × SYBR Green I (Invitrogen; supplied in 10,000 × concentration) in lysis buffer ([…], 5 mM EDTA, 0.16% Saponin wt per vol and 1.6% Triton X vol per vol) was added to the wells and the plates were incubated overnight at room temperature before plate reading. EC50 assays were repeated three times, taking the average EC50 value from each assay set, and removing any outliers using a single iteration of Grubbs' test, eliminating values with z-scores above the critical z-value (α=0.05). The raw EC50 values for synchronized parasites assayed in a 384-well format are listed in Supplementary Data 4. The raw EC50 values for asynchronous parasites assayed in a 96 or 1536-well format are listed in Supplementary Data 5.
# (§3) EC50 values for each strain were compared with those of the corresponding parent strain to determine fold-shift changes and identify resistance. To minimize the cause variance between assays, all comparisons were conducted between strains assayed under identical conditions. A one-way ANOVA followed by a Dunnet's post-test was conducted in GraphPad Prism to identify significant changes between the parent and resistant strain.
# [2] = test system: Dd2; test: Cross-resistance EC50 assay, Dd2 parent; assay type: cell-based, Plasmodium falciparum; details: Plasmodium falciparum, DD2, 72 h
# Source text: Multidrug resistance alleles, including mutations in P. falciparum chloroquine resistance transporter (pfcrt) and P. falciparum multi-drug resistance transporter 1 (pfmdr1) are very common in field isolates. Therefore, we sought to assess the degree to which pre-existing resistance alleles would contribute to a loss of potency for this diverse collection of small molecule compounds. Fifteen clones derived from three main parent lines were chosen to maximize diversity in mutated pathways and genetic backgrounds, thus representing the variety of resistance seen in the field: 3D7 (ref. [23]), W2 (ref. [24]) or Dd2 (ref. [25]). The 3D7 line originates from the clone of a Netherlands clinical isolate strain[23][26] and is generally considered to be drug sensitive, though it does convey resistance to sulfadoxine. Conversely, W2 (ref. [24], [27]) and Dd2 (ref. [25]) are multi-drug-resistant lines originating from the Indochina III/CDC isolate, which contain point mutations in pfcrt as well as amplifications in pfmdr1 and GTP cyclohydrolase.
# as §1, §2, §3
# [3] = test system: P. falciparum strain 3D7; test: Asexual blood stage 3H-hypoxanthine incorporation assay, 3D7; assay type: cell-based, Plasmodium falciparum; details: Plasmodium falciparum, 3D7, asexual stage, P. falciparum 3D7; read-out: 3D7 EC50
# Description: The 48-h assay was carried out in a 96-well format following standard methods using the ^3H-hypoxanthine incorporation assay. The raw EC50 values corresponding to this assay can be found in Supplementary Data 3. Briefly, this assay relies on the parasite incorporation of labelled hypoxanthine that is proportional to P. falciparum growth. A culture of parasitized RBCs (0.5% parasitemia with a percentage of ring stage higher than 70% of total parasitemia, 2.0% haematocrit) in RPMI-1640, […] and 5 μM hypoxanthine was exposed to drug serial dilutions. Plates were incubated for 24 h at 37 °C, 5% CO2, 5% O2 and 90% N2. After 24 h of incubation, ^3H-hypoxanthine was added and plates were incubated for an additional 24-h period. After that, parasites were harvested on a glass fibre filter using a TOMTEC Cell Harvester 96. Filters were dried and melt-on scintillator sheets were used to determine the incorporation of ^3H-hypoxanthine. Radioactivity was measured using a microbeta counter. Data were normalized using the incorporation of the positive (parasitized RBCs without drug) and negative (same culture with artesunate at 2 μM) controls. All assays were conducted in triplicate using three independently grown cultures, and EC50 values were determined using the XLfit add-in module for Excel (version 2.3.1) from Grafit (version 5.3.1.3), where parameter h is the assay hill slope, x is the compound concentration and y is the inhibition of growth effect. The XLfit equation is: […]
# [4] = test system: CYTb-G131S (cytb G131S, parent Dd2); test: Cross-resistance EC50 assay, CYTb-G131S; assay type: cell-based, Plasmodium falciparum; details: Plasmodium falciparum; SYBR green 72 hour assay; synchronized parasites; 384-well format; strain CYTb:G131S (Dd2 parent)
# Source text: as §1, §2, §3
# [5] = test system: DHODH (E182D, parent 3D7); test: Cross-resistance EC50 assay, DHODH; assay type: cell-based; details: Plasmodium falciparum; SYBR green 72 hour assay; synchronized parasites; 384-well format; strain DHODH (3D7 parent)
# Source text: as §1, §2, §3
# [6] = test system: PfCRT-Q352R (parent Dd2); test: Cross-resistance EC50 assay, PfCRT-Q352R; assay type: cell-based; details: Plasmodium falciparum, DD2, 72 h, read-out: PfCRT:Q352R (Dd2 Parent) Average EC50
# Source text: as §1, §2, §3
# [7] = test system: CYTbQi (cytb G33A, parent Dd2); test: Cross-resistance EC50 assay, CYTbQi; assay type: cell-based; details: Plasmodium falciparum; SYBR green 72 hour assay; synchronized parasites; 384-well format; strain CYTbQi (Dd2 parent)
# Source text: as §1, §2, §3
# [8] = read-out: Dd2 (PARENT) Average EC50
# [9] = read-out: Dd2 (PARENT) EC50 (µM) Average EC50
Structure (SMILES),EC50 [1],"EC50 [2, 8]","EC50 [2, 9]",EC50 [3],EC50 [4],EC50 [5],EC50 [6],EC50 [7]
CCN(CC)CCn1c(=N)n(CC(O)c2ccc(Cl)c(Cl)c2)c2ccccc21.Cl (stereo not drawn) [MMV000248],0.191 µM,0.424 µM,0.413 µM,0.306 µM,0.367 µM,0.315 µM,0.329 µM,0.34 µM
Cc1cc(Nc2ccc(OCc3ccccc3)cc2)nc2cc(O)ccc12 [MMV007181],0.088 µM,0.186 µM,0.19 µM,0.346 µM,0.245 µM,0.206 µM,0.133 µM,0.144 µM
CN(C)Cc1ccc(-c2cc3c(-c4ccc(CN(C)C)cc4)ccnc3[nH]2)cc1.O=C(O)C(F)(F)F [MMV022224],0.358 µM,0.41 µM,0.302 µM,0.388 µM,0.343 µM,0.321 µM,0.32 µM,0.327 µM
CN1CCN(c2ccc(Nc3c4ccccc4nc4ccccc34)cc2)CC1 [MMV006172],0.181 µM,0.168 µM,0.298 µM,0.095 µM,0.171 µM,0.05 µM,0.075 µM,0.107 µM
Nc1ccc(-c2nc3cc(Cc4ccc5[nH]c(-c6ccc(N)cc6)nc5c4)ccc3[nH]2)cc1 [MMV665943],0.042 µM,0.412 µM,0.488 µM,0.316 µM,0.41 µM,0.335 µM,0.407 µM,0.45 µM
c1cc(-c2cnc3ccc(-c4ccc(N5CCOCC5)cc4)nn23)ccn1 [MMV668311],0.029 µM,0.056 µM,0.039 µM,0.048 µM,0.063 µM,0.042 µM,0.063 µM,0.066 µM
OC(CNC1CCCCC1)Cn1c2ccccc2c2ccccc21 (stereo not drawn) [MMV009063],0.652 µM,0.188 µM,0.364 µM,0.79 µM,0.412 µM,0.715 µM,0.315 µM,0.257 µM
O=C(Nc1ccc(Cl)c(Cl)c1)Nc1ccc(Cl)c(Cl)c1 [MMV665852],2.71 µM,0.894 µM,1.8 µM,1.17 µM,1.12 µM,1.77 µM,0.905 µM,1.01 µM
Nc1ccc(-c2nc3cc(Oc4ccc(Oc5ccc6[nH]c(-c7ccc(N)cc7)nc6c5)cc4)ccc3[nH]2)cc1 [MMV011895],0.525 µM,0.259 µM,0.431 µM,0.16 µM,0.328 µM,0.168 µM,0.206 µM,0.267 µM

# From PMC4912613, “A broad analysis of resistance development in the malaria parasite” (Nature Communications, 2016)
